Consider six molecules from PubChem BioAssay (NCI).

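Five compound concentrations were applied to cells in 96-well plates for 48 hours; endpoints were derived by simple linear interpolation of the resulting dose-response curve. GI50: concentration for 50% inhibition of growth. Definition used: TGI = concentration required for complete inhibition of growth.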 Some results are limits rather than exact numbers.

Test systems include TK-10 renal; PC-3 prostate; BT-549 breast; SNB-19 CNS; NCI-H23 lung; SK-MEL-5 melanoma; LOX IMVI melanoma; HCT-116 colon; KM12 colon; OVCAR-3 ovarian.
What all share (experiment): NCI tumour cell line growth inhibition, 48 h

Take `Cn1c(=O)c2[nH]cnc2n(C)c1=O.[CH2-]C(Cc1cccc2cc(C(=O)O)c(=O)oc12)OC.[Hg+2].[OH-]` (stereo not given): the GI50 was 19.3 µM in the assay with TK-10 renal; 18 µM in the assay with PC-3 prostate; 17.3 µM in the assay with BT-549 breast; 17.7 µM in the assay on SNB-19 CNS; 16.8 µM in the assay with NCI-H23 lung; 17.4 µM with SK-MEL-5 melanoma. Also, the GI50 in the assay with LOX IMVI melanoma is 16 µM; in the assay with HCT-116 colon, 16.8 µM; in the assay on KM12 colon, 17.3 µM; with OVCAR-3 ovarian, 17.3 µM. In addition, the TGI with TK-10 renal came to 33.4 µM; in the assay on PC-3 prostate, 31.8 µM; in the assay on BT-549 breast, 31.2 µM; in the assay with SNB-19 CNS, 31.6 µM; in the assay with NCI-H23 lung it was 30.9 µM; in the assay with SK-MEL-5 melanoma, 31.2 µM. For the same molecule, the TGI in the assay on LOX IMVI melanoma was 30.3 µM; with HCT-116 colon, 30.5 µM; in the assay with KM12 colon it was 32 µM; with OVCAR-3 ovarian, 32.8 µM.

As to `CNCC1CCn2c(c(C3=C(c4cn(C)c5ccccc45)C(=O)NC3=O)c3ccccc32)C1` (stereo not given), the GI50 in the assay with TK-10 renal was 2.78 µM; in the assay on PC-3 prostate it was 2.39 µM; with BT-549 breast, 4.36 µM; in the assay on SNB-19 CNS it was 4.58 µM; with NCI-H23 lung, 2.99 µM; in the assay on SK-MEL-5 melanoma it was 3.88 µM. Besides, the GI50 in the assay on LOX IMVI melanoma is 3.84 µM; with HCT-116 colon it was 1.82 µM; in the assay with KM12 colon it was 3.41 µM; in the assay with OVCAR-3 ovarian, 3.98 µM. The TGI in the assay on TK-10 renal was 6.34 µM; in the assay on PC-3 prostate, 8.79 µM; with BT-549 breast it was 10.9 µM; in the assay with SNB-19 CNS, 16.3 µM; in the assay on NCI-H23 lung it was 8.03 µM; in the assay with SK-MEL-5 melanoma, 7.97 µM. Also, the TGI in the assay with LOX IMVI melanoma is 7.4 µM; in the assay on HCT-116 colon it was 5.56 µM; with KM12 colon, 7.41 µM; in the assay with OVCAR-3 ovarian, 8.97 µM.

With `O=C1C=C(OCC=C(Cl)Cl)C(=O)c2ccccc21`, the GI50 in the assay on TK-10 renal was 61.2 µM; in the assay with PC-3 prostate, 5.14 µM; in the assay with BT-549 breast it was 4.94 µM; in the assay with SNB-19 CNS it was above 91.1 µM; in the assay with NCI-H23 lung, 3.63 µM; in the assay with SK-MEL-5 melanoma it was 1.53 µM. The GI50 was 1.09 µM with LOX IMVI melanoma, 2.52 µM with HCT-116 colon, 8.41 µM in the assay on KM12 colon and 1.9 µM with OVCAR-3 ovarian. Besides, the TGI was above 100 µM in the assay on TK-10 renal; above 100 µM in the assay with PC-3 prostate; above 30.3 µM with BT-549 breast; above 100 µM with SNB-19 CNS; above 85 µM in the assay on NCI-H23 lung; 3.85 µM in the assay with SK-MEL-5 melanoma. Moreover, the TGI is 4.35 µM with LOX IMVI melanoma, 7.71 µM in the assay with HCT-116 colon, above 90.7 µM in the assay with KM12 colon and 4.13 µM in the assay on OVCAR-3 ovarian.

Consider `COc1ccc2c(c1)C(=O)c1c-2n(CCCNCCO)c(=O)c2cc([N+](=O)[O-])ccc12`, for which the GI50 in the assay with TK-10 renal is 0.28 µM; in the assay on PC-3 prostate, below 0.0137 µM; in the assay with BT-549 breast, 0.0226 µM; with SNB-19 CNS, below 0.01 µM; in the assay with NCI-H23 lung it was below 0.01 µM; in the assay with SK-MEL-5 melanoma it was below 0.01 µM. Further, the GI50 in the assay with LOX IMVI melanoma was below 0.01 µM; in the assay with HCT-116 colon, below 0.01 µM; in the assay on KM12 colon, 0.0255 µM; with OVCAR-3 ovarian, 0.0171 µM. Also, the TGI is 11.8 µM in the assay with TK-10 renal; 1.33 µM in the assay on PC-3 prostate; 1.21 µM in the assay with BT-549 breast; 19.9 µM in the assay on SNB-19 CNS; 0.0341 µM with NCI-H23 lung; below 0.0251 µM in the assay on SK-MEL-5 melanoma. Moreover, the TGI in the assay on LOX IMVI melanoma was found to be 0.0905 µM; in the assay on HCT-116 colon it was 0.192 µM; with KM12 colon it was 0.739 µM; in the assay on OVCAR-3 ovarian, 0.586 µM.

Take `O=C1/C(=C/c2cccc(F)c2)CN(C(=O)C(Cl)Cl)C/C1=C\c1cccc(F)c1`: the GI50 is 0.433 µM in the assay with TK-10 renal; 0.186 µM in the assay with PC-3 prostate; 0.252 µM with BT-549 breast; 0.204 µM in the assay on SNB-19 CNS; 0.234 µM in the assay with NCI-H23 lung; 0.2 µM in the assay on SK-MEL-5 melanoma. The GI50 with LOX IMVI melanoma is 0.0385 µM; with HCT-116 colon, 0.0634 µM; in the assay on KM12 colon, 0.172 µM; in the assay with OVCAR-3 ovarian, 0.19 µM. The TGI came out at 1.45 µM in the assay on TK-10 renal; 0.539 µM in the assay on PC-3 prostate; 0.787 µM in the assay on BT-549 breast; 0.604 µM in the assay on SNB-19 CNS; 0.69 µM in the assay with NCI-H23 lung; 0.431 µM with SK-MEL-5 melanoma. Besides, the TGI is 0.109 µM in the assay on LOX IMVI melanoma, 0.239 µM with HCT-116 colon, 0.476 µM in the assay with KM12 colon and 0.41 µM with OVCAR-3 ovarian.

As to `NS(=O)(=O)c1ccc(N=Nc2c(=O)[nH]c3ccc4[nH]cccc4c23)cc1`, the GI50 in the assay with TK-10 renal was 0.699 µM; with PC-3 prostate, 0.583 µM; with BT-549 breast, 0.498 µM; with SNB-19 CNS, 0.428 µM; in the assay on NCI-H23 lung it was 0.671 µM; with SK-MEL-5 melanoma it was 0.256 µM. Also, the GI50 is 0.304 µM in the assay with LOX IMVI melanoma, 0.151 µM with HCT-116 colon, 0.792 µM in the assay on KM12 colon and 0.375 µM in the assay on OVCAR-3 ovarian. Moreover, the TGI is 2.24 µM in the assay with TK-10 renal; above 25 µM in the assay with PC-3 prostate; 1.72 µM with BT-549 breast; above 25 µM in the assay on SNB-19 CNS; 3.77 µM with NCI-H23 lung; 4.69 µM in the assay with SK-MEL-5 melanoma. In addition, the TGI is above 25 µM in the assay on LOX IMVI melanoma, above 25 µM in the assay with HCT-116 colon, 4.32 µM in the assay on KM12 colon and 1.98 µM in the assay on OVCAR-3 ovarian.
